Results reported in patent US20200331950A1, “SGLTS INHIBITOR AND APPLICATION THEREOF” (SHANDONG DANHONG PHARMACEUTICAL CO., LTD., priority 2018, published 2020).
pIC50: −log10 of the molar value.

Assays:
Human-SGLT2 = biological target: T1, Human-SGLT2 (Homo sapiens, UniProt P31639); test: SGLT2 glucose transport test ([14C]-labeled methyl a-D-glucopyranoside uptake); assay type: cell-based; conditions: cells stably expressing Human-SGLT2; 37° C., 2 hours
T1 sequence (P31639 1-672): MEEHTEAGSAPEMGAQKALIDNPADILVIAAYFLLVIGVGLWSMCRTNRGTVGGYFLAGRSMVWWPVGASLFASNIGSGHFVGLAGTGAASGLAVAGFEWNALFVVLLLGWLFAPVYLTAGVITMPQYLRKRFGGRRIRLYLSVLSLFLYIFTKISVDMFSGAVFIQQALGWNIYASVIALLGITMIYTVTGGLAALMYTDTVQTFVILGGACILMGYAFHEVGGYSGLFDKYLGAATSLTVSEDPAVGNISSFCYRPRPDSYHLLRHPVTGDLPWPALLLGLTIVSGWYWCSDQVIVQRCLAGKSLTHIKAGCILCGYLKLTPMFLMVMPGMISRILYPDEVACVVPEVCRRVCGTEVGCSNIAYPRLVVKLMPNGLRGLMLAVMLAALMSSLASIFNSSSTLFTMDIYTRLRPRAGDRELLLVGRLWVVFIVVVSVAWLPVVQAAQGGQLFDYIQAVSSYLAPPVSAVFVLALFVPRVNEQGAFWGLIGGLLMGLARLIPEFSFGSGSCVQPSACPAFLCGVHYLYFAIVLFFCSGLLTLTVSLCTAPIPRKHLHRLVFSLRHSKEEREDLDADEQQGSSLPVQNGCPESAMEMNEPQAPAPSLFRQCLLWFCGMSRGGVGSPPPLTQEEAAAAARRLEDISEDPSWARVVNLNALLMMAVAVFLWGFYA
Method: Biological Activity Experiment 2: SGLT2 Glucose Transport Test.
1. Purpose of the Experiment:
The effect of the compound on the glucose transport activity of SGLT2 transporter was detected by measuring the amount of [^14C]-labeled glucose entering cells with high expression of Human-SGLT2.
The cells stably expressing Human-SGLT2 were constructed by Wuxi AppTec(Shanghai) Co., Ltd. SGLT2 cells were laid in 96-well cell culture plate (Greiner) and cultured overnight in 5% CO2 environment at 37° C.
2.2. SGLT2 Glucose Transport Test.
1) Experimental buffer, including: 10 mM 4-hydroxyethylpiperazineethanesulfonic acid (HEPES), 1.2 mM magnesium chloride (MgCl2), 4.7 mM potassium chloride (KCl), 2.2 mM calcium chloride (CaCl2) and 120 mM sodium chloride (NaCl).
2) Stop buffer, including: 10 mM 4-hydroxyethylpiperazineethanesulfonic acid (HEPES), 1.2 mM magnesium chloride (MgCl2), 4.7 mM potassium chloride (KCl), 2.2 mM calcium chloride (CaCl2), 120 mM sodium chloride (NaCl) and 1 μM LX4211.
3) Compounds were serially diluted in 100% dimethyl sulfoxide (DMSO) starting at 10 uM and make a 5-folds, 8 points serials compound dilutions.
4) 6 μM [^14C]-labeled methyl a-D-lucopyranosid was prepared with the experimental buffer.
5) The cells were treated with 49 uL of the experimental buffer, 1 μL of the gradient diluted compound and 50 μL of the 6 μM [^14C]-labeled methyl a-D-lucopyranosid solution at 37° C. for 2 hours.
6) The solution was sucked out from holes, and the cells were rinsed with the stop buffer for 3 times.
7) The cells were lysed with 50 ul of 10% sodium hydroxide solution, the cell lysate was sucked into a scintillation tube, into which 2 mL scintillation solution was then added.
8) The data were read with an isotope detector Tricarb.
9) The IC50 value of the tested compound was obtained by the calculation formula: log(inhibitor) vs. response—Variable slope, using GraphPad Prism 5.0 software.

[1] = In vivo pharmacokinetics in rats; conditions: male SD rats; for Oral DNAUC (AUCPO/Dose) / bioavailability: oral 2 mg/kg; for clearance / half-life / Vd / bioavailability / Cmax: rat, plasma; for clearance / half-life / Vd / Cmax: intravenous 1 mg/kg or oral 2 mg/kg; for clearance: read-out: Cl (clearance rate); for half-life: read-out: T1/2 (half-life) (converted); for Vd: read-out: Vdss (distribution volume); for bioavailability: intravenous 1 mg/kg, read-out: F % (oral bioavailability); for Cmax: single administration
Excerpt: Study on the In Vivo Pharmacokinetics in Rats
The purpose of the experiment: Male SD rats were used as test animals and were given a single administration to determine the plasma concentration of the compound and evaluate the pharmacokinetic behavior.
Experimental method: Six healthy adult male SD rats were divided into 2 groups, with 3 rats in an intravenous injection group and 3 rats in an oral administration group. In the intravenous injection group, the test compound was mixed with an appropriate amount of vehicle (10% N-methyl pyrrolidone (NMP)/10% polyethylene glycol-15 hydroxystearate (available from solutol)/80% water), then vortexed and sonicated to prepare 0.2 mg/mL clear solution, which was filtered by microporous membrane. In the oral administration group, 10% N-methyl pyrrolidone (NMP)/10% polyethylene glycol-15 hydroxy stearate (available from solutol)/80% water was used as a vehicle and mixed with the test compound, then vortexed and sonicated to prepare 0.40 mg/mL clear solution. The rats were given intravenous administration at a dose of 1 mg/kg or oral administration at a dose of 2 mg/kg. Whole blood was collected at a certain period of time to prepare the plasma. The drug concentration of the plasma was analyzed by LC-MS/MS method, and the pharmacokinetic parameters were calculated using Phoenix WinNonlin software (Pharsight Company, USA).

| pIC50 (Human-SGLT2) | Oral DNAUC (AUCPO/Dose) [1] [nM · h/mpk] | clearance [1] [mL/min/kg] | half-life [1] [h] | Vd [1] [L/kg] | bioavailability [1] [%] | Cmax [1] [nM] | Structure (SMILES) |
| --- | --- | --- | --- | --- | --- | --- | --- |
| 8.40 | 1823 | 10.1 | 4.59 | 3.86 | 59 | 410 | CS[C@H]1OC(c2ccc(Cl)c(Cc3ccc(C4=CCC(F)(F)CC4)cc3)c2)[C@H](O)[C@@H](O)[C@@H]1O (stereo partly drawn) [WXD001] |
| 8.69 | 1013 | 14.5 | 2.56 | 2.94 | 47.7 | 391 | CS[C@H]1O[C@@H](c2ccc(C)c(Cc3ccc(C4=CCC(F)(F)CC4)cc3)c2)[C@H](O)[C@@H](O)[C@@H]1O [WXD003] |
| 8.60 | 2320 | 8.06 | 4.5 | 2.48 | 56.4 | 356 | CCc1ccc([C@@H]2O[C@H](SC)[C@@H](O)[C@H](O)[C@H]2O)cc1Cc1ccc(C2=CCC(F)(F)CC2)cc1 [WXD010] |
